We go through 82 compounds from ChEMBL document CHEMBL1151292, “Antineoplastic activity and cytotoxicity of flavones, isoflavones, and flavanones” (1979).

In brackets after ≈: the same amount, converted by molar mass. Activity calls are given as the source filed them. How the calls were made is not given here. Some results are limits rather than exact numbers.

One test concerns L1210. The test is described as follows: In vivo antitumor activity against mouse L1210 cells. Format: functional, organism-based.
Conditions: not given
Turning to `COc1ccc(-c2cc(=O)c3c(O)cccc3o2)cc1`, the result was inactive.
The same measure, in the same setting: then `O=c1cc(-c2cccc(O)c2)oc2ccccc12`, with “inactive”; and `COc1cc2oc(-c3ccc(O)cc3)c(O[C@@H]3O[C@@H](C)[C@H](O)[C@@H](O)[C@H]3O)c(=O)c2c(O)c1OC`, with “inactive”; and `COc1cc(-c2cc(=O)c3ccc(O)cc3o2)cc(OC)c1OC`, with “inactive”.
With `C[C@@H]1O[C@@H](OC[C@H]2O[C@@H](Oc3ccc4c(=O)c(-c5ccc6c(c5)OCO6)coc4c3)[C@H](O)[C@@H](O)[C@@H]2O)[C@H](O)[C@@H](O)[C@H]1O`, the result was inactive.
In the case of `COc1ccc(-c2oc3ccccc3c(=O)c2O)cc1`, the outcome was inactive.
Turning to `O/N=c1/cc(-c2ccccc2)oc2ccccc12`, the outcome was inactive.
On the same count and under the same terms, with `COc1ccc(-c2cc(=O)c3c(O)cc(O)cc3o2)cc1OC` the entry was “inactive”; with `COc1ccc(-c2oc3cc(O)cc(O)c3c(=O)c2OC)cc1OC`, “inactive”; with `COc1cc(C2Oc3cc(OC)c(OC)c(O)c3C(=O)C2OC)ccc1O` (stereo not given), “inactive”.
Same read-out and setting: then `CC(=O)Oc1cc(OC(C)=O)c2c(=O)c(OC(C)=O)c(-c3ccc(OC(C)=O)c(OC(C)=O)c3)oc2c1`, with “inactive”.
Same read-out and setting: then `COc1ccc(C2(OC)Oc3ccccc3C(=O)C2(O)OC)cc1OC` (stereo not given), with “inactive”; and `COc1cc(-c2cc(=O)c3c(C)cc(O)cc3o2)cc(OC)c1OC`, with “inactive”; and `COc1cc(OC)c2c(=O)c(O)c(-c3ccc(OC)c(OC)c3)oc2c1`, with “inactive”.
`C[C@@H]1O[C@@H](OC[C@H]2O[C@@H](Oc3c(-c4ccc(O)c(O)c4)oc4c(O)cc(O)cc4c3=O)[C@H](O)[C@@H](O)[C@@H]2O)[C@H](O)[C@H](O)[C@H]1O`: the outcome was inactive.
Same read-out and setting: then `Cc1c(O)cc2c(c1O)C(=O)CC(c1ccc(O)cc1)O2` (stereo not given), with “inactive”.
On the same count and under the same terms, then `COc1ccc(-c2cc(=O)c3c(C)cc(O)cc3o2)cc1`, with “inactive”.
With `COc1cc(-c2cc(=O)c3ccc(O)c([C@@H]4O[C@H](CO)[C@@H](O)[C@H](O)[C@H]4O)c3o2)ccc1O`, the outcome was inactive.
Still for that read-out and setting: then `O=C1C[C@@H](c2ccc(O)cc2)Oc2cc(O)cc(O)c21`, with “inactive”; and `COc1cc(O)c(C2CC(=O)c3c(O)cc(O[C@@H]4O[C@H](CO[C@@H]5O[C@@H](C)[C@H](O)[C@@H](O)[C@H]5O)[C@@H](O)[C@H](O)[C@H]4O)cc3O2)cc1O` (stereo not given in full), with “inactive”.
Still for that read-out and setting: then `COc1cc(C2CC(=O)c3ccccc3O2)ccc1O` (stereo not given), with “inactive”; and `COc1ccc(-c2cc(=O)c3ccc(O)cc3o2)cc1`, with “inactive”; and `O=C1C(=O)C(c2ccccc2)Oc2ccccc21` (stereo not given), with “inactive”.
Same read-out and setting: with `COC1(c2ccccc2)Oc2ccccc2C(=O)C1(O)C[N+](=O)[O-]` (stereo not given) the entry was “inactive”.
Turning to `COc1cc(-c2cc(=O)c3c(O)cc(C)cc3o2)cc(OC)c1OC`, the outcome was inactive.
Still for that read-out and setting: with `COc1cc(O)c2c(=O)c(OC)c(-c3ccc(O)c(OC)c3)oc2c1` the entry was “inactive”; with `COC1(O)C(=O)c2ccccc2OC1(OC)c1ccccc1` (stereo not given), “inactive”; with `COc1ccc(-c2cc(=O)c3c(C)cc(O)cc3o2)cc1OC`, “inactive”.
On the same count and under the same terms, then `O=c1c(O)c(-c2ccc(Cl)cc2)oc2cc(O)ccc12`, with “inactive”; and `COc1ccc(-c2coc3cc(O)cc(O)c3c2=O)cc1`, with “inactive”; and `O=c1cc(-c2ccccc2)oc2c(O)c(O)cc(O)c12`, with “inactive”.
For `COc1ccc(-c2cc(=O)c3ccc(O)cc3o2)cc1OC`, the result was inactive.
On the same count and under the same terms, with `O=c1cc(-c2ccc3c(c2)OCO3)oc2ccccc12` the entry was “inactive”.
Regarding `O=c1c(-c2ccccc2)coc2ccccc12`, the result was inactive.
Still for that read-out and setting: then `CC(=O)c1c(O)cc(O)cc1-c1cc(=O)c2c(O)ccc(C(C)=O)c2o1`, with “inactive”.
The same measure, in the same setting: then `COC1(O)C(=O)c2ccccc2OC1(OC)c1ccc(Cl)cc1` (stereo not given), with “inactive”; and `Cc1ccc(-c2oc3ccccc3c(=O)c2O)cc1`, with “inactive”.
Still for that read-out and setting: with `COc1ccc(-c2coc3cc(O)ccc3c2=O)cc1` the entry was “inactive”.
Consider `COc1ccc(-c2oc3ccccc3c(=O)c2O)cc1OC`, for which the outcome was inactive.
Still for that read-out and setting: then `COc1ccc(-c2oc3cc(CC=C(C)C)cc(O)c3c(=O)c2OC)cc1OC`, with “inactive”.
As for `Cc1c(-c2ccccc2)oc2c(C(=O)OCCN3CCCCC3)cccc2c1=O.Cl` [FLAVOXATE HYDROCHLORIDE], the outcome was inactive.
Still for that read-out and setting: then `COc1ccc2c(c1)OC(OC)(c1ccc(OC)c(OC)c1)C(O)(OC)C2=O` (stereo not given), with “inactive”; and `COc1ccc(-c2cc(=O)c3c(O)cc(C)cc3o2)cc1OC`, with “inactive”.
Same read-out and setting: with `COc1cc(OC)c(-c2cc(=O)c3c(O)cc(O)cc3o2)c(OC)c1` the entry was “inactive”.
On the same count and under the same terms, with `COc1ccc2c(=O)c(C)c(-c3ccccc3)oc2c1CN(C)C.Cl` [DIMEFLINE HYDROCHLORIDE] the entry was “inactive”.
As for `COc1cc(-c2cc(=O)c3c(O)cc(O)cc3o2)cc(OC)c1OC`, the result was inactive.
Still for that read-out and setting: with `CC(=O)Oc1ccc2c(=O)c(-c3ccccc3)c(C)oc2c1` the entry was “inactive”; with `COc1ccc2c(=O)c(O)c(-c3ccc(OC)c(OC)c3)oc2c1`, “inactive”.

The next test concerns KB. The test is described as follows: Cytotoxicity against human KB cells. Format: functional. The following applies: read-out: ED50 (the source's name).
For `O=c1cc(-c2cccc(O)c2)oc2ccccc12`, the EC50 was found to be 8.5 µg/mL (≈ 35.7 µM).
For `COc1ccc2c(=O)c(O)c(-c3ccccc3)oc2c1`, the EC50 was 26 µg/mL (≈ 96.9 µM).
As to `COc1ccc(-c2cc(=O)c3cc(OC)c(OC)cc3o2)cc1O`, the EC50 amounted to 2 µg/mL (≈ 6.09 µM).
Regarding `O=c1c(O)c(-c2ccccc2)oc2cc(O)cc(O)c12` [GALANGIN], the EC50 was above 100 µg/mL.
On the same count and under the same terms, with `COc1ccc(-c2oc3cc(O)c(O)c(O)c3c(=O)c2O)cc1OC` the figure was 27 µg/mL (≈ 78 µM).
Still for that read-out and setting: with `O=c1c(O)c(-c2ccc(O)c(O)c2)oc2cc(O[C@@H]3O[C@H](CO)[C@@H](O)[C@H](O)[C@H]3O)cc(O)c12` [QUERCIMERITRIN] the figure was 28 µg/mL (≈ 60.3 µM); with `COc1ccc2c(c1)OC(OC)(c1ccccc1)C(O)(O)C2=O` (stereo not given), 20 µg/mL (≈ 63.2 µM).
Consider `COc1ccc(C2(OC)Oc3cc(OC)ccc3C(=O)C2(O)O)cc1` (stereo not given), for which the EC50 turned out to be 2.8 µg/mL (≈ 8.08 µM).
On the same count and under the same terms, with `COc1cc(O)c2c(c1)OC(c1ccc(O)cc1)CC2=O` (stereo not given) the figure was 13 µg/mL (≈ 45.4 µM).
On the same count and under the same terms, with `COC1(c2ccccc2)Oc2ccccc2C(=O)C1(O)O` (stereo not given) the figure was 19 µg/mL (≈ 66.4 µM).
Regarding `Cc1c(O)cc2c(c1O)C(=O)CC(c1ccc(O)cc1)O2` (stereo not given), the EC50 stood at 57 µg/mL (≈ 199 µM).
Take `CS(=O)(=O)Nc1c(-c2ccccc2)oc2ccccc2c1=O`: the EC50 turned out to be 10 µg/mL (≈ 31.7 µM).
Same read-out and setting: with `COc1cc(O)c2c(=O)cc(-c3ccc(OC)c(O)c3)oc2c1` the figure was 19 µg/mL (≈ 60.5 µM).
The same measure, in the same setting: with `CS(=O)(=O)Oc1cccc(-c2cc(=O)c3ccccc3o2)c1` the figure was above 100 µg/mL; with `COc1cc(O)c(C2CC(=O)c3c(O)cc(O[C@@H]4O[C@H](CO[C@@H]5O[C@@H](C)[C@H](O)[C@@H](O)[C@H]5O)[C@@H](O)[C@H](O)[C@H]4O)cc3O2)cc1O` (stereo not given in full), above 100 µg/mL.
Still for that read-out and setting: then `COc1ccc(C2Oc3ccccc3C(=O)C2N)cc1.Cl` (stereo not given), with above 100 µg/mL; and `COc1cc2c(=O)cc(-c3ccc(OC)c(OC)c3)oc2cc1O`, with 45 µg/mL (≈ 137 µM); and `COC1(O)C(=O)c2ccccc2OC1(OC)c1ccccc1` (stereo not given), with 34 µg/mL (≈ 113 µM).
Turning to `COc1c(-c2ccc(O)c(O)c2)oc2cc(O)cc(O)c2c1=O` [3-O-METHYLQUERCETIN], the EC50 was determined as 17 µg/mL (≈ 53.8 µM).
On the same count and under the same terms, with `O=c1cc(-c2ccc(O)cc2)oc2cc(O[C@@H]3O[C@H](CO)[C@@H](O)[C@H](O)[C@H]3O)cc(O)c12` [APIGETRIN] the figure was above 100 µg/mL.
Same read-out and setting: then `COc1cc(OC)c2c(=O)c(OC)c(-c3ccc(OC)c(OC)c3)oc2c1`, with 25 µg/mL (≈ 67.1 µM); and `COc1cc2c(=O)cc(-c3ccc(O)c(O)c3)oc2cc1O`, with 18 µg/mL (≈ 59.9 µM).
Still for that read-out and setting: with `C[C@@H]1O[C@@H](OC[C@H]2O[C@@H](Oc3c(-c4ccc(O)c(O)c4)oc4cc(O)cc(O)c4c3=O)[C@H](O)[C@@H](O)[C@@H]2O)[C@H](O)[C@H](O)[C@H]1O` [RUTIN] the figure was 26 µg/mL (≈ 42.6 µM); with `C[C@@H]1O[C@@H](OC[C@H]2O[C@@H](Oc3c(-c4ccc(O)c(O)c4)oc4cc(O)cc(O)c4c3=O)[C@H](O)[C@@H](O)[C@@H]2O)[C@H](O)[C@H](O)[C@H]1O.Cl`, above 100 µg/mL; with `Cc1ccc(C(C)C)c(-c2oc3ccc(Cl)cc3c(=O)c2Cl)c1`, 60 µg/mL (≈ 173 µM).
As to `COc1c(O)cc2oc(-c3ccc(O)cc3)cc(=O)c2c1O` [HISPIDULIN], the EC50 was 22 µg/mL (≈ 73.3 µM).
For `O=c1c(Cl)c(-c2ccccc2O)oc2ccccc12`, the EC50 came to 22 µg/mL (≈ 80.7 µM).
The same measure, in the same setting: with `O=c1c(Cl)c(-c2ccccc2)oc2ccc(Cl)cc12` the figure was above 100 µg/mL.
For `O=c1c(O)c(-c2cc(O)c(O)c(O)c2)oc2cc(O)ccc12` [ROBINETIN], the EC50 came to 25 µg/mL (≈ 82.7 µM).
Still for that read-out and setting: then `COc1ccc(-c2oc3cc(O)cc(O)c3c(=O)c2O)cc1` [KAEMPFERIDE], with 20 µg/mL (≈ 66.6 µM).
On the same count and under the same terms, with `Cc1c(-c2ccccc2)oc2c(C(=O)OCCN3CCCCC3)cccc2c1=O.Cl` [FLAVOXATE HYDROCHLORIDE] the figure was above 100 µg/mL.
Take `Cc1ccc(-c2oc3ccc(Cl)cc3c(=O)c2Cl)c(C(C)C)c1`: the EC50 was 22 µg/mL (≈ 63.4 µM).
In the case of `C=CCOc1ccc(-c2cc(=O)c3c(OC)c(OC)c(OC)c(OC)c3o2)cc1`, the EC50 stood at 26 µg/mL (≈ 65.3 µM).
On the same count and under the same terms, with `Cc1ccc2oc(-c3ccccc3)c(Cl)c(=O)c2c1` the figure was above 100 µg/mL; with `O=c1cc(-c2ccc(O)c(O)c2)oc2c([C@@H]3O[C@H](CO)[C@@H](O)[C@H](O)[C@H]3O)c(O)cc(O)c12` [ORIENTIN], 25 µg/mL (≈ 55.8 µM).
On the same count and under the same terms, then `COc1c(OC)c(OC)c2c(=O)cc(-c3ccc(OC(C)C)cc3)oc2c1OC`, with above 100 µg/mL; and `COc1ccc2c(=O)c(C)c(-c3ccccc3)oc2c1CN(C)C.Cl` [DIMEFLINE HYDROCHLORIDE], with 22 µg/mL.
Turning to `O=c1cc(-c2ccccc2)oc2cc(F)ccc12` [7-FLUOROFLAVONE], the EC50 came out at 22 µg/mL (≈ 91.6 µM).

Another test concerns CCRF S-180. The test is described as follows: In vivo antitumor activity against mouse S180 cells. Format: functional, organism-based.
Conditions: not given
Turning to `O/N=c1/cc(-c2ccccc2)oc2ccccc12`, the result was inactive.
On the same count and under the same terms, with `CS(=O)(=O)Nc1c(-c2ccccc2)oc2ccccc2c1=O` the entry was “inactive”.
On the same count and under the same terms, then `O=C1C[C@@H](c2ccc(O)cc2)Oc2cc(O)cc(O)c21`, with “inactive”; and `COc1ccc(C2Oc3ccccc3C(=O)C2N)cc1.Cl` (stereo not given), with “inactive”; and `COc1cc(C2CC(=O)c3ccccc3O2)ccc1O` (stereo not given), with “inactive”.
On the same count and under the same terms, then `O=c1cc(-c2ccc(O)cc2)oc2cc(O[C@@H]3O[C@H](CO)[C@@H](O)[C@H](O)[C@H]3O)cc(O)c12` [APIGETRIN], with “inactive”; and `O=c1c(O)c(-c2ccc(Cl)cc2)oc2cc(O)ccc12`, with “inactive”.
For the compound `C[C@@H]1O[C@@H](OC[C@H]2O[C@@H](Oc3cc(O)c4c(c3)OC(c3ccc(O)cc3)CC4=O)[C@H](O)[C@@H](O)[C@@H]2O)[C@H](O)[C@H](O)[C@H]1O` (stereo not given in full), the outcome was inactive.
The same measure, in the same setting: with `O=C1c2cc(Cl)ccc2OC(Cl)(c2ccc(Cl)cc2)C1Cl` (stereo not given) the entry was “inactive”.
